Test results taken from patent US5780604A, “11,12-cyclic phosphite or phosphate derivatives of erythromycin and related macrolides” (Abbott Laboratories, priority 1997, dated 1998).
≈ marks a conversion by molar mass, not a printed value.

Tests used:
[1] = background statement; cited from earlier work
[2] = test system: gram-positive bacteria, mycoplasmas; settings: background statement, U.S. Pat. No. 4,331,803; cited from earlier work
Gram-negative bacteria = settings: background statement; cited from earlier work
[3] = test system: Haemophilis Influenzae DILL AMP R; format: cell-based; settings: BHI agar, 35°-37° C., 20 to 24 hours; unit assumed
Description: (§1) Representative compounds of the present invention were assayed in vitro for antibacterial activity as follows: Twelve petri dishes containing successive aqueous dilutions of the test compound mixed with 10 mL of sterilized Brain Heart Infusion (BHI) agar (Difco 0418-01-5) were prepared. Each plate was inoculated with 1:100 (or 1:10 for slow-growing strains, such as Micrococcus and Streptococcus) dilutions of up to 32 different microorganisms, using a Steers replicator block. […] In addition, a control plate, using BHI agar containing no test compound, was prepared and incubated at the beginning and end of each test.
(§2) An additional plate containing a compound having known susceptibility patterns for the organisms being tested and belonging to the same antibiotic class as the test compound was also prepared and incubated as a further control, as well as to provide test-to-test comparability.
(§3) After incubation, each plate was visually inspected. The minimum inhibitory concentration (MIC) was defined as the lowest concentration of drug yielding no growth, a slight haze, or sparsely isolated colonies on the inoculum spot as compared to the growth control.

Escherichia coli JUHL = assay: In vitro antibacterial activity (MIC), agar dilution; format: cell-based; settings: unit assumed
Description: as §1, §2, §3

[4] = test system: Staphylococcus aureus CMX 553; format: cell-based; settings: BHI agar, 35°-37° C., 20 to 24 hours; unit assumed
Description: as §1, §2, §3

[5] = test system: Streptococcus pyogenes EES61; format: cell-based; settings: BHI agar, 35°-37° C., 20 to 24 hours; unit assumed
Description: as §1, §2, §3

[6] = test system: Micrococcus luteus ATCC 9341; format: cell-based; settings: BHI agar, 35°-37° C., 20 to 24 hours; unit assumed
Description: as §1, §2, §3

[7] = test system: Streptococcus pyogenes PIU 2548; format: cell-based; settings: BHI agar, 35°-37° C., 20 to 24 hours; unit assumed
Description: as §1, §2, §3

[8] = test system: Staphylococcus aureus CMX 642A; format: cell-based; settings: BHI agar, 35°-37° C., 20 to 24 hours; unit assumed
Description: as §1, §2, §3

[9] = test system: Staphylococcus aureus ATCC 6538P; format: cell-based; settings: BHI agar, 35°-37° C., 20 to 24 hours; unit assumed
Description: as §1, §2, §3

[10] = test system: Staphylococcus aureus A5177; format: cell-based; settings: BHI agar, 35°-37° C., 20 to 24 hours; unit assumed
Description: as §1, §2, §3

[11] = test system: Streptococcus bovis A-5169; format: cell-based; settings: BHI agar, 35°-37° C., 20 to 24 hours; unit assumed
Description: as §1, §2, §3

[12] = test system: Staphylococcus aureus NCTC10649M; format: cell-based; settings: BHI agar, 35°-37° C., 20 to 24 hours; unit assumed
Description: as §1, §2, §3

[13] = test system: Staphylococcus epidermidis 3519; format: cell-based; settings: BHI agar, 35°-37° C., 20 to 24 hours; unit assumed
Description: as §1, §2, §3

[14] = test system: Enterococcus faecium ATCC 8043; format: cell-based; settings: BHI agar, 35°-37° C., 20 to 24 hours; unit assumed
Description: as §1, §2, §3

[15] = test system: Streptococcus agalactiae CMX 508; format: cell-based; settings: BHI agar, 35°-37° C., 20 to 24 hours; unit assumed
Description: as §1, §2, §3

[16] = test system: Micrococcus luteus ATCC 4698; format: cell-based; settings: BHI agar, 35°-37° C., 20 to 24 hours; unit assumed
Description: as §1, §2, §3

[17] = test system: Nocardia Asteroides ATCC9970; assay: In vitro antibacterial activity (MIC), agar dilution; format: cell-based; settings: BHI agar, 35°-37° C., 20 to 24 hours; unit assumed
Description: as §1, §2, §3

[18] = test system: Mycobacterium smegmatis ATCC 114; assay: as above; format: cell-based; settings: BHI agar, 35°-37° C., 20 to 24 hours; unit assumed
Description: as §1, §2, §3

[19] = test system: Staphylococcus aureus A-5278; assay: as above; format: cell-based; settings: BHI agar, 35°-37° C., 20 to 24 hours; unit assumed
Description: as §1, §2, §3

[20] = test system: Streptococcus pyogenes 930; assay: as above; format: cell-based; settings: BHI agar, 35°-37° C., 20 to 24 hours; unit assumed
Description: as §1, §2, §3

Escherichia coli SS = assay: as above; format: cell-based; settings: BHI agar, 35°-37° C., 20 to 24 hours; unit assumed
Description: as §1, §2, §3

Escherichia coli DC-2 = assay: as above; format: cell-based; settings: BHI agar, 35°-37° C., 20 to 24 hours; unit assumed
Description: as §1, §2, §3

[21] = test system: Streptococcus Pheumoniae 5649; assay: as above; format: cell-based; settings: BHI agar, 35°-37° C., 20 to 24 hours; unit assumed
Description: as §1, §2, §3

Candida albicans CCH 442 = assay: as above; format: cell-based; settings: BHI agar, 35°-37° C., 20 to 24 hours; unit assumed
Description: as §1, §2, §3

[22] = test system: Staphylococcus aureus 1775; assay: as above; format: cell-based; settings: BHI agar, 35°-37° C., 20 to 24 hours; unit assumed
Description: as §1, §2, §3

[23] = test system: Streptococcus Pheumoniae GYR 1171; assay: as above; format: cell-based; settings: BHI agar, 35°-37° C., 20 to 24 hours; unit assumed
Description: as §1, §2, §3

[24] = BHI agar, 35°-37° C., 20 to 24 hours

Row | Compound | activity against Gram-negative bacteria (Gram-negative bacteria) | MIC [3] [µg/mL] | MIC [4] [µg/mL] | MIC [5] [µg/mL] | MIC [6] [µg/mL] | MIC [7] [µg/mL] | MIC [8] [µg/mL] | MIC [9] [µg/mL] | MIC [10] [µg/mL] | MIC [11] [µg/mL] | MIC [12] [µg/mL] | MIC [13] [µg/mL] | MIC [14] [µg/mL] | MIC [15] [µg/mL] | MIC [16] [µg/mL] | MIC [17] [µg/mL] | MIC [18] [µg/mL] | MIC [19] [µg/mL] | MIC [20] [µg/mL] | MIC (Escherichia coli SS) [µg/mL] | also measured
1 | CC[C@H]1OC(=O)[C@H](C)[C@@H](O[C@H]2C[C@@](C)(OC)[C@@H](O)[C@H](C)O2)[C@H](C)[C@@H](O[C@@H]2O[C@H](C)C[C@H](N(C)C)[C@H]2O)[C@](C)(OC)C[C@@H](C)C(=O)[C@H](C)[C@@H](O)[C@]1(C)O [6-O-methyl erythromycin A] | only weak antimicrobial activity |  |  |  |  |  |  |  |  |  |  |  |  |  |  |  |  |  |  |  | acid stability [1]: poor acid stability; antibacterial activity against many gram-positive bacteria, mycoplasmas, etc. [2]: desirable antibacterial activity
2 | CC[C@H]1OC(=O)[C@H](C)[C@@H](O[C@H]2C[C@@](C)(OC)[C@@H](O)[C@H](C)O2)[C@H](C)[C@@H](O[C@@H]2O[C@H](C)C[C@H](N(C)C)[C@H]2O)[C@](C)(O)C[C@@H](C)C(=O)[C@H](C)[C@@H](O)[C@]1(C)O [Ery. A, Erythromycin A] | only weak activity | 4 (≈ 5.45 µM) |  |  |  |  |  |  |  |  |  |  |  |  |  |  |  |  |  |  | MIC (Escherichia coli JUHL): > 100 µg/mL
3 | CC[C@H]1OC(=O)[C@H](C)C(=O)[C@H](C)[C@@H](O[C@@H]2O[C@H](C)C[C@H](N(C)C)[C@H]2O)[C@](C)(OC)C[C@@H](C)C(=O)[C@H](C)[C@H]2OP(OC)O[C@@]21C (some centres unmarked) [Example 3] |  | > 128 | 50 (≈ 77.2 µM) | 12.5 (≈ 19.3 µM) | 25 (≈ 38.6 µM) | 12.5 (≈ 19.3 µM) | 25 (≈ 38.6 µM) | 25 (≈ 38.6 µM) | 25 (≈ 38.6 µM) | 12.5 (≈ 19.3 µM) | 25 (≈ 38.6 µM) | 25 (≈ 38.6 µM) | 25 (≈ 38.6 µM) | 12.5 (≈ 19.3 µM) | 25 (≈ 38.6 µM) | 12.5 (≈ 19.3 µM) | 100 (≈ 154 µM) | > 100 | > 100 | 50 (≈ 77.2 µM) | MIC (Escherichia coli JUHL; [24]): > 100 µg/mL; MIC (Escherichia coli DC-2): > 100 µg/mL; MIC [21]: 16 µg/mL (≈ 24.7 µM); MIC (Candida albicans CCH 442): > 100 µg/mL; MIC [22]: > 100 µg/mL; MIC [23]: 8 µg/mL (≈ 12.4 µM)
4 | CCOP1O[C@@H]2[C@@H](C)C(=O)[C@H](C)C[C@@](C)(OC)[C@H](O[C@@H]3O[C@H](C)C[C@H](N(C)C)[C@H]3O)[C@@H](C)C(=O)[C@@H](C)C(=O)O[C@H](CC)[C@@]2(C)O1 (some centres unmarked) [Example 5] |  | > 128 | 50 (≈ 75.6 µM) | 12.5 (≈ 18.9 µM) | 25 (≈ 37.8 µM) | 12.5 (≈ 18.9 µM) | 50 (≈ 75.6 µM) | 25 (≈ 37.8 µM) | 25 (≈ 37.8 µM) | 12.5 (≈ 18.9 µM) | 25 (≈ 37.8 µM) | 25 (≈ 37.8 µM) | 25 (≈ 37.8 µM) | 12.5 (≈ 18.9 µM) | 50 (≈ 75.6 µM) | 12.5 (≈ 18.9 µM) | 100 (≈ 151 µM) | > 100 | > 100 | 50 (≈ 75.6 µM) | MIC (Escherichia coli JUHL; [24]): > 100 µg/mL; MIC (Escherichia coli DC-2): > 100 µg/mL; MIC [21]: 16 µg/mL (≈ 24.2 µM); MIC (Candida albicans CCH 442): > 100 µg/mL; MIC [22]: > 100 µg/mL; MIC [23]: 4 µg/mL (≈ 6.04 µM)
